Ki and IC50 data for two compounds are collected here from paper PMC10186366 (ACS Pharmacology & Translational Science, 2023).

One assay concerns the target T1, SHMT2 (Homo sapiens, UniProt P34897).
T1 construct: N-terminal His6-tagged SHMT2 (residues 30–504); made in house; host or cells: E. coli Rosetta (DE3)pLysS
T1 sequence (P34897 30-504): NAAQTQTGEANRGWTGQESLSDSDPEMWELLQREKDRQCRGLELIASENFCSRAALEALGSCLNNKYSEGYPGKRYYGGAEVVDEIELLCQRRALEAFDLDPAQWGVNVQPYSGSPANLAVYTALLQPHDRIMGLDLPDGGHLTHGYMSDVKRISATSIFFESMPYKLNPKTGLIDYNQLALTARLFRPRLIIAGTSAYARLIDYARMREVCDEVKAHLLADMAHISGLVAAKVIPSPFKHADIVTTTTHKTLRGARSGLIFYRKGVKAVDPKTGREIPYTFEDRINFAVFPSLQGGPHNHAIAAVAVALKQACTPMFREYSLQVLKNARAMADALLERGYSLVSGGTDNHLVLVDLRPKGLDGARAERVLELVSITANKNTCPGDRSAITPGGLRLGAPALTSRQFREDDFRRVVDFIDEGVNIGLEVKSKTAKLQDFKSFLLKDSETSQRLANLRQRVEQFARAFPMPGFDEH
Briefly: SHMT2 coupled enzyme assay with MTHFD2 (NADH production). The assay is classed as biochemical. The settings on record: mean (standard error), at least three replicate assays.

In assay [1] the test system is PC43-10 CHO cells (expresses only human RFC). To be noted: 96 h; mean (standard error); previously published; cited from earlier work.
Assay [2] has as its system D4 CHO cells (expresses only human FRβ). The settings on record: 96 h; mean (standard error); previously published; cited from earlier work.

SMILES strings stand for the structures. Where only a bound is given, the exact number is not on record here.

Experimental for SHMT2: N-terminal His6-tagged SHMT2 (residues 30–504) and full-length MTHFD2 were expressed in Rosetta (DE3)pLysS cells. One liter cultures were grown in LB media with 100 mg/mL ampicillin and 35 mg/mL chloramphenicol at 37 °C until the OD600 was 0.6. […] The cells were pelleted and resuspended in 25 mL of 25 mM Tris–HCl, pH 7.5, 300 mM NaCl, and 5 mM β-Me. To lyse the cells, 40 mg lysozyme and 8 U DNAse I were added followed by incubation on ice for 15 min. The cells were then lysed by emulsification.
Purification of His-SHMT2 and His-MTHFD2 was by Ni-affinity chromatography (above). For further purification of His-SHMT2, pyridoxal 5′-phosphate (PLP) was added (3-fold excess to His-SHMT2) followed by incubation for 16–18 h. Further purification was by size exclusion chromatography on a Superdex 200 16/60 column (GE Healthcare) with monitoring of PLP absorbance at 435 nm. Purified His-SHMT2 was stored in 20 mM sodium phosphate buffer, pH 7.5, 100 mM potassium chloride, 0.2 mM EDTA, and 5 mM β-ME. To further purify MTHFD2, size exclusion chromatography was performed using a Superdex 200 16/60 column (GE Healthcare). His-MTHFD2 was stored in 50 mM Tris–HCl buffer, pH 7.5, 250 mM sodium chloride, 5% glycerol, and 0.5 mM tris(2-chloroethyl) phosphate (TCEP).
Kinetic measurements were recorded in triplicate in a UV-transparent 96-well plate (Costar 3635) at 298 nm using a BioTek Synergy Neo2 Plate Reader. Initial slopes were graphed against inhibitor concentrations and fit to a three-parameter nonlinear regression to calculate IC50 values for each compound (GraphPad Prism 8.0). […] SHMT2 activity was assayed by monitoring NADH production with a coupled assay including 500 nM His-SHMT2 and 10 μM His-MTHFD2 (1:200 molar ratio His-SHMT2/His-MTHFD2). NADH production by His-MTHFD2 was monitored by fluorescence at 470 nm with excitation at 360 nm (Synergy Neo2 Biotek plate reader). Inhibition constants (Ki’s) were calculated from the IC50 values using the equation Ki = IC50/([S]/KM + 1) and the Km and substrate concentration for THF. The THF concentration in the reaction was 50 mM.

In the case of `Nc1nc2sc(CCCc3ccc(C(=O)N[C@@H](CCC(=O)O)C(=O)O)cc3)cc2c(=O)[nH]1` [Compound 1], at SHMT2, the affinity corresponds to a Ki of 67.3 µM. Further, the IC50 is > 1 µM in assay [1] and 0.112 µM in assay [2].

Consider `Nc1nc2sc(CCCc3ccc(C(=O)N[C@@H](CCC(=O)O)C(=O)O)c(F)c3)cc2c(=O)[nH]1` [Compound 6, (4-(3-(2-Amino-4-oxo-3,4-dihydrothieno[2,3-d]pyrimidin-6-yl)propyl)-2-fluorobenzoyl)-L-glutamic Acid], for which, at SHMT2, affinity was put at a Ki of 27.6 µM.

Broadly, the Ki is a measure of affinity in units of concentration, obtained from inhibition or displacement. Usually IC50 stands for the point on the concentration scale where inhibition reaches its midpoint.
